Laboratory results from patent US20250084095A1, “Aminopyrimidine Derivatives as Cyclin-Dependent Kinase Inhibitors” (Accutar Biotechnology Inc., priority 2023, published 2025).

These molecules were tested on Phospho-Rb (Ser807/811) in SW1573-CDK6 KO cells (assay: Phospho-Rb expression inhibition in SW1573-CDK6 KO cells quantified by in cell Western). Settings: Homo sapiens, 24 hours, read-out: SW1573 CDK6 KO pRb IC50.
Assay type: cell-based
Procedure: Parental SW1573 cells were obtained from the American Type Culture Collection (ATCC). CDK4 or CDK6 gene in […] cells was knocked out using the CRISPR-Cas9 technology. First, gRNA complex of CDK4 or CDK6 was prepared with Alt-R CRISPR-Cas9 tracrRNA and crRNA CDK4 (5′-[…]-3′ (SEQ ID NO: 4)) or CDK6 (5′-[…]-3′ (SEQ ID NO. 5)) (IDT-Integrated DNA Technologies), and then ribonucleoprotein (RNP) complex of CDK4 or CDK6 was prepared with respective gRNA complex and Alt-R S.p. Cas9 Nuclease V3 (IDT-Integrated DNA Technologies). Next, 5×10^4/10 μL SWJ1573 cells were electroporated with the CDK4 or CDK6 RNP complex and Alt-R Cas9 Electroporation Enhancer using Neon Transfection System (Thermo Fisher). Cells were then plated in a 96-well plate to select single clones for validation of CDK4 or CDK6 knockout by western blot analysis.
MCF7 cells were obtained from American Type Culture Collection (ATCC, HTB-22). SW1573-CDK6 KO and SW1573-CDK4 KO cells were generated by the CRISPR-Cas9 technology. All cells were plated in 96-well plates (VWR #10062-900, or Corning #3904) in 90 uL culture medium at a density of 20,000 cells/well in the respective growth medium containing 10% FBS and 1% Penicillin Streptomycin, and then incubated at 37° C. overnight. The following day, the test compound was administered to the cells by using 1000× compound stock solution prepared in DMSO at various concentrations. 1000× compound stock solution was first diluted in culturing medium to 10×, then 10 uL compound medium was added to each well in the cell plates. After administration of the compound, the cells were then incubated at 37° C. for 24 hours. Upon completion, the cells were washed with PBS briefly. 150 uL/well of 4% formaldehyde was added and the plates were incubated at room temperature for 20 mins. The cells were washed with PBS briefly, and permeabilized with 150 uL/well of ice cold 100% methanol for 10 mins. The cells were washed with PBS briefly and blocked with 100 uL/well LI-COR blocking buffer for 1 hr at room temperature with gentle shaking. The cells were incubated overnight at 4° C. with 50 uL primary antibody rabbit anti-Phospho-Rb (Ser807/811) (1: 500, Cell Signaling, #8516) and anti-Rb (1:200, Santa Cruz, sc-73598) diluted in Intercept Blocking Buffer (LI-COR, #927-60001) containing 0.1% Tween 20. The next day, the cells were washed with 200 uL PBS containing 0.1% Tween 20, 5×5 mins at room temperature with gentle shaking, and incubated with 50 uL secondary antibody, IRDye® 800CW Goat anti-Rabbit IgG (1:1000, LI-COR, #926-32211) and IRDye®680RD Goat anti-Mouse IgG (1:1000, LI-COR, #926-68070), in LI-COR blocking buffer with 0.2% Tween 20 for 1 hr at room temperature with gentle shaking. The cells were washed with 200 uL PBS containing 0.1% Tween 20, 5×5 mins at room temperature with gentle shaking. The cells were washed with PBS for 5 mins. 100 uL fresh PBS was added to each well and the plates were imaged on a LI-COR Odyssey CLX plate reader.

Compound | IC50
CCn1cc(C(C)C)c2sc(-c3nc(N[C@@H]4C[C@H]5CO[C@H](O5)[C@H]4O)ncc3Cl)c(C)c2c1=O [Compound 230, 5-ethyl-2-(5-chloro-2-(((1S,3R,4S,5R)-4-hydroxy-6,8-dioxabicyclo[3.2.1]octan-3-yl)amino)pyrimidin-4-yl)-7-isopropyl-3-methylthieno[3,2-c]pyridin-4(5H)-one] | ≤ 40 nM
Cc1c(C(C)(C)O)cnc2c(F)cc(-c3nc(N[C@@H]4C[C@H]5CO[C@H](O5)[C@H]4O)ncc3Cl)cc12 [Compound 257, (1S,3R,4S,5R)-3-((5-chloro-4-(8-fluoro-3-(2-hydroxypropan-2-yl)-4-methylquinolin-6-yl)pyrimidin-2-yl)amino)-6,8-dioxabicyclo[3.2.1]octan-4-ol] | ≤ 40 nM
CC(C)n1c(N2C(=O)OC[C@@H]2C)nc2c(F)cc(-c3nc(N[C@@H]4C[C@H]5CO[C@H](O5)[C@H]4O)ncc3Cl)cc21 [Compound 298, (S)-3-(6-(5-chloro-2-(((1S,3R,4S,5R)-4-hydroxy-6,8-dioxabicyclo[3.2.1]octan-3-yl)amino)pyrimidin-4-yl)-4-fluoro-1-isopropyl-1H-benzo[d]imidazol-2-yl)-4-methyloxazolidin-2-one] | 40 to 150 nM
Cc1c(CN2CC(F)C2)n(C(C)C)c2cc(-c3nc(N[C@@H]4C[C@H]5CO[C@H](O5)[C@H]4O)ncc3F)ccc2c1=O [Compound 197, 7-(5-fluoro-2-(((1S,3R,4S,5R)-4-hydroxy-6,8-dioxabicyclo[3.2.1]octan-3-yl)amino)pyrimidin-4-yl)-2-((3-fluoroazetidin-1-yl)methyl)-1-isopropyl-3-methylquinolin-4(1H)-one] | 40 to 150 nM
Cc1c(-c2nc(N[C@@H]3C[C@H]4CO[C@H](O4)[C@H]3O)ncc2C(F)F)sc2c(C(C)C)cn(C)c(=O)c12 [Compound 227, 2-(5-(difluoromethyl)-2-(((1S,3R,4S,5R)-4-hydroxy-6,8-dioxabicyclo[3.2.1]octan-3-yl)amino)pyrimidin-4-yl)-7-isopropyl-3,5-dimethylthieno[3,2-c]pyridin-4(5H)-one] | ≤ 40 nM
Cc1c(CN2[C@@H](C)COC[C@@H]2C)n(C(C)C)c2cc(-c3nc(N[C@@H]4C[C@H]5CO[C@H](O5)[C@H]4O)ncc3F)ccc2c1=O [Compound 199, 2-(((3S,5S)-3,5-dimethylmorpholino)methyl)-7-(5-fluoro-2-(((1S,3R,4S,5R)-4-hydroxy-6,8-dioxabicyclo[3.2.1]octan-3-yl)amino)pyrimidin-4-yl)-1-isopropyl-3-methylquinolin-4(1H)-one] | ≤ 40 nM
Cc1c(-c2nc(N[C@@H]3C[C@H]4CO[C@H](O4)[C@H]3O)ncc2Cl)sc2c(C(C)C)cn(C)c(=O)c12 [Compound 223, 2-(5-chloro-2-(((1S,3R,4S,5R)-4-hydroxy-6,8-dioxabicyclo[3.2.1]octan-3-yl)amino)pyrimidin-4-yl)-7-isopropyl-3,5-dimethylthieno[3,2-c]pyridin-4(5H)-one] | ≤ 40 nM
CC(C)n1c(CN2[C@@H](C)COC[C@@H]2C)c(F)c(=O)c2ccc(-c3nc(N[C@@H]4C[C@H]5CO[C@H](O5)[C@H]4O)ncc3Cl)cc21 [Compound 201, 7-(5-chloro-2-(((1S,3R,4S,5R)-4-hydroxy-6,8-dioxabicyclo[3.2.1]octan-3-yl)amino)pyrimidin-4-yl)-2-(((3S,5S)-3,5-dimethylmorpholino)methyl)-3-fluoro-1-isopropylquinolin-4(1H)-one] | 40 to 150 nM
Cc1c(CN(C)C)n(C(C)C)c2cc(-c3nc(N[C@@H]4C[C@H]5CO[C@H](O5)[C@H]4O)ncc3F)ccc2c1=O [Compound 195, 2-((dimethylamino)methyl)-7-(5-fluoro-2-(((1S,3R,4S,5R)-4-hydroxy-6,8-dioxabicyclo [3.2.1]octan-3-yl)amino)pyrimidin-4-yl)-1-isopropyl-3-methylquinolin-4(1H)-one] | ≤ 40 nM
CC(C)n1c([C@@H]2CCOC2)nc2c(F)cc(-c3nc(N[C@@H]4C[C@H]5CO[C@H](O5)[C@H]4O)ncc3Cl)cc21 [Compound 268, (1S,3R,4S,5R)-3-((5-chloro-4-(4-fluoro-1-isopropyl-2-((S)-tetrahydrofuran-3-yl)-1H-benzo[d]imidazol-6-yl)pyrimidin-2-yl)amino)-6,8-dioxabicyclo[3.2.1]octan-4-ol] | 40 to 150 nM
CC(C)n1c(CN2CC[C@@H](F)C2)c(F)c(=O)c2ccc(-c3nc(N[C@@H]4C[C@H]5CO[C@H](O5)[C@H]4O)ncc3F)cc21 [Compound 202, 3-fluoro-7-(5-fluoro-2-(((1S,3R,4S,5R)-4-hydroxy-6,8-dioxabicyclo[3.2.1]octan-3-yl)amino)pyrimidin-4-yl)-2-(((R)-3-fluoropyrrolidin-1-yl)methyl)-1-isopropylquinolin-4(1H)-one] | 40 to 150 nM
